Measurements reported in publication PMC2882941 (Pharmaceutical research, 2009).

Target: T1, hASBT (Homo sapiens, UniProt Q12908)
T1 sequence (Q12908 1-348): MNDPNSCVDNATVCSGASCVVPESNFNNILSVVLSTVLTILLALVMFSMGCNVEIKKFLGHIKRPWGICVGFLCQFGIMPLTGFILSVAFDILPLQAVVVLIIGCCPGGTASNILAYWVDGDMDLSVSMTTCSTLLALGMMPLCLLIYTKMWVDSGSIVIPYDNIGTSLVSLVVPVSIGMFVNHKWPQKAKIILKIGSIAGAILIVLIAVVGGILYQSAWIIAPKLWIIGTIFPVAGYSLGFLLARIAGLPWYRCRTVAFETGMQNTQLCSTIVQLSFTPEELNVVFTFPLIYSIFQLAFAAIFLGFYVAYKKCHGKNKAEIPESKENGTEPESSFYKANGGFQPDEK
Assay: in vitro
Details: MDCK

`C[C@H](CCC(=O)NCCS(=O)(=O)O)[C@H]1CC[C@H]2[C@@H]3[C@H](O)C[C@@H]4C[C@H](O)CC[C@]4(C)[C@H]3C[C@H](O)[C@]12C` [TCA, Taurocholate] was tested, and the Papp was 0.089 to 0.3 ×10⁻⁶ cm/s.
